Data on two molecules can be found in patent publication US9763987B2, “Cyclic di-AMP induction of type I interferon” (priority 2010, dated 2017).

Series [1] deals with bone marrow derived macrophages (BMM). Nature of the series: IFN-β bio-assay: samples delivered to BMM cytosol by digitonin, type I IFN read with ISRE-L929 luciferase reporter cells. It counts as cell-based, mouse. Conditions: FIG. 3d. Here is the method:
Mouse bone marrow from 6-8 week old female mice was differentiated to bone marrow derived macrophages (BMM) as described previously (S3). Interferon responsive ISRE-L929 cells were cultured in ISRE media (DMEM, 2 mM glutamine, 1 mM pyruvate, 10% heat inactivated FBS, and penicillin-streptomycin). Induction of type-I interferon was assessed using BMMs plated in 96-well flat bottom tissue culture treated plates (10^5 cells/well) a minimum of 12 hours prior to use in BMM media (DMEM, 2 mM glutamine, 1 mM pyruvate, 10% CSF from 3T3 cells, and 20% heat inactivated FBS). Samples (10 μL) of L. monocytogenes supernatants, HPLC fractions, and cyclic di-AMP standard (Biolog Life Sciences Institute, […]) were mixed with a 10× volume of digitonin permeabilization solution (50 mM HEPES pH 7.0, 100 mM KCl, 3 mM MgCl2, 0.1 mM DTT, 85 mM Sucrose, 0.2% BSA, 1 mM ATP, 0.1 mM GTP, ±10 μg/mL Digitonin) (S4). Media was aspirated from the cells and replaced with 50 μL each sample mixture. Cells were incubated for 30 minutes at 37° C. […] Finally, 40 μL of luciferase substrate solution (20 mM Tricine, 2.67 mM MgSO4.7H2O, 0.1 mM EDTA, 33.3 mM DTT, 530 μM ATP, 270 μM acetyl CoA lithium salt, 470 μM luciferin, 5 mM NaOH, 265 μM magnesium carbonate hydroxide) was added to each well and luminescence was measured using a VICTOR3 luminometer (PerkinElmer). • 8. […]
Background: Reporter assays use an easily measured gene product as a stand-in for the process of interest.

Another series deals with WT and mutant BMMs. The experiment in a line: IFN-β induction in various host strains (WT and knockout BMMs), ISRE L929 bioassay. It counts as cell-based, mouse. The note with it: 3 μM with digitonin, 6 hours; WT vs myd88-trif−/−, irf3−/−, mays−/− macrophages; parallel to L. monocytogenes (IRF3 and STING dependent, MyD88/Trif and MAVS independent); FIG. 9. Here is the method: BMMs were differentiated as described previously (S3). For mays−/−macrophages, heterozygous mice were used as a control. WT and mutant BMMs were plated in 24-well plates ([…]) the evening prior to use. For infections, 2×10^6 bacteria from 30° C. overnight cultures were washed with PBS and added to each well containing 500 μL of BMM media. For c-di-AMP treatment, synthetic standard was dissolved in digitonin solution to a final concentration of 3 μM. Media was aspirated from cells and replaced with 200 μL of c-di-AMP/digitonin mix. From this point on infections and c-di-AMP samples were treated the same. At 30 minutes wells were aspirated and replaced with fresh BMM media. At 1 hour post infection gentamycin (50 μg/mL) was added. For LPS treatment, 100 ng of sonicated LPS stock solution (50 μg/mL) was added to appropriate wells containing 500 μL of BMM media. Supernatants from all wells were collected and analyzed by ISRE L929 bioassay for IFN-β activity at 6 hours. • 10. Supporting References • S1. D. A. Portnoy, P. S. Jacks, D. J. Hinrichs, Role of hemolysin for the intracellular growth of Listeria monocytogenes. J. Exp. Med. 167, 1459 (1988). • S2. L. Phan-Thanh, T. Gormon, A chemically defined minimal medium for the optimal culture of Listeria. Int. J. Food Microbiol. 35, 91 (1997). • S3. […]

For a further series, the system named is host IFN pathway. Conditions: delivered to the host cytosol; reference 29; cited from earlier work.

For the molecule `Nc1ncnc2c1ncn2[C@@H]1O[C@@H]2COP(=O)(O)O[C@H]3[C@@H](O)[C@H](n4cnc5c(N)ncnc54)O[C@@H]3COP(=O)(O)O[C@H]2[C@H]1O` [c-di-AMP, cyclic di-adenosine monophosphate], the “IFN-β induction in macrophages” value in series [1] (commercially available c-di-AMP delivered to the cytosol of murine BMMs) is recorded as “dose-dependent response”. Further, the “IFN-β inducing activity after treatment with snake venom phosphodiesterase (SVPD)” value in series [1] (sample treated with SVPD) is listed as “abolished the activity”. Moreover, the cell permeability entry in the series on cells is recorded as “not cell permeable”. For the same molecule, in the series with cells (added to the outside of cells), the induction of inflammation result is “does not induce inflammation”. The “host signaling pathway required for detection (type-I IFN)” value in the series on WT and mutant BMMs is “requires a parallel host-signaling pathway”.

As for `Nc1nc2c(ncn2[C@@H]2O[C@@H]3COP(=O)(O)O[C@H]4[C@@H](O)[C@H](n5cnc6c(=O)[nH]c(N)nc65)O[C@@H]4COP(=O)(O)O[C@H]3[C@H]2O)c(=O)[nH]1` [c-di-GMP], the “activation of host IFN pathway” value in the series with host IFN pathway is listed as “specifically activates the host IFN pathway”.
